According to ChEMBL document CHEMBL1145107, “Peptide science: exploring the use of chemical principles and interdisciplinary collaboration for understanding life processes” (J Med Chem, 2003):
*1 amine or outer side, *2 acyl side, *3 side chain or, on linkers, in order; H or OH if unused. Where a SMILES comes first, the peptide text is derived from it. [ ]: non-standard residue; d: D form. X1 = Cc1cc(O)cc(C)c1[C@H](C)[C@@H](N[*:1])C(=O)[*:2]; NMeNle = CCCC[C@H](NC)C(=O)O; Pen = CC(C)(S)[C@H](N)C(=O)O

What was measured:
[1] = tested on: Anolis carolinensis; assay: Biological activity using the lizard skin (Anolis carolinensis) assay. The value indicates prolonged biological activity; assay type: functional, organism-based
[2] = Biological activity using the frog skin (Rana pipiens) assay. The value indicates prolonged biological activity; assay type: functional
[3] = molecular target: Mu-type opioid receptor (Cavia porcellus) (UniProt P97266); assay: In vitro bioassay data to determine the effective concentration required for antagonistic activity against Opioid receptor mu 1 in functional assay, GPI at a concentration of 82 uM; parameters: scale not given: the % may be the effect or the level left
Sequence of Mu-type opioid receptor (Cavia porcellus) (P97266 whole entry): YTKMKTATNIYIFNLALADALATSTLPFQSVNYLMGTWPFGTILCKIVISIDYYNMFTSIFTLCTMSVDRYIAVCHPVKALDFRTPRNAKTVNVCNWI

[4] = molecular target: T1, Mu-type opioid receptor (Homo sapiens, UniProt P35372); assay: Binding affinity towards Opioid receptor mu 1 using [3H]- CTOP as radioligand
T1 sequence (P35372 whole entry): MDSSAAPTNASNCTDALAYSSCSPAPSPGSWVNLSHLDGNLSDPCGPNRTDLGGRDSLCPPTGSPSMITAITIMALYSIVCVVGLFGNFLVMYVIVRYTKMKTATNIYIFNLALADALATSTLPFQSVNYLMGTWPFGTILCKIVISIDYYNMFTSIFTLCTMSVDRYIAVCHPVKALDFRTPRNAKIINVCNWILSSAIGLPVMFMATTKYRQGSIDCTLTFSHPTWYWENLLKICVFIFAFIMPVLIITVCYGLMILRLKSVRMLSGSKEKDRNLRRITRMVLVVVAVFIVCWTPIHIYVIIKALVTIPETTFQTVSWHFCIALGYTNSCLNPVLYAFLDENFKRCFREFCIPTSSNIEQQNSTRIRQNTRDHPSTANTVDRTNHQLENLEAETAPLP

[5] = Biological activity using the frog skin (Rana pipiens) assay. The value indicates no prolonged biological activity; assay type: functional
[6] = tested on: Anolis carolinensis; assay: Biological activity using the lizard skin (Anolis carolinensis) assay. The value indicates no prolonged biological activity; assay type: functional, organism-based
[7] = molecular target: T1, Mu-type opioid receptor; assay: Binding affinity towards Opioid receptor mu 1 was determined
[8] = molecular target: T2, Cholecystokinin receptor type A (Homo sapiens, UniProt P32238); assay: Binding affinity towards Cholecystokinin type A receptor (CCK-A) receptor was determined
T2 sequence (P32238 whole entry): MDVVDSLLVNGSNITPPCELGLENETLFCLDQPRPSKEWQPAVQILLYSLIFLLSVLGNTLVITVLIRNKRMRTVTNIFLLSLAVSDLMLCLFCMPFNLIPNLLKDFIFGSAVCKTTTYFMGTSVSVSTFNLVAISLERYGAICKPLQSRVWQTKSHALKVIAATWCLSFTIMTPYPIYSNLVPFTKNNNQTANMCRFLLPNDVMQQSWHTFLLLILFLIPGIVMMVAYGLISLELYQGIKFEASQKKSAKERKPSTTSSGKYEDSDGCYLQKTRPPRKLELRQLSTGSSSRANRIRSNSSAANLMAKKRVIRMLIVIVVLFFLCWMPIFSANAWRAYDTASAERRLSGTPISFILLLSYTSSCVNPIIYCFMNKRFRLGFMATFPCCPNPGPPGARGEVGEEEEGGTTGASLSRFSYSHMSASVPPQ

[9] = molecular target: Delta-type opioid receptor (Homo sapiens, UniProt P41143); assay: Binding affinity towards Opioid receptor delta 1 was determined
Sequence of Delta-type opioid receptor (P41143 whole entry): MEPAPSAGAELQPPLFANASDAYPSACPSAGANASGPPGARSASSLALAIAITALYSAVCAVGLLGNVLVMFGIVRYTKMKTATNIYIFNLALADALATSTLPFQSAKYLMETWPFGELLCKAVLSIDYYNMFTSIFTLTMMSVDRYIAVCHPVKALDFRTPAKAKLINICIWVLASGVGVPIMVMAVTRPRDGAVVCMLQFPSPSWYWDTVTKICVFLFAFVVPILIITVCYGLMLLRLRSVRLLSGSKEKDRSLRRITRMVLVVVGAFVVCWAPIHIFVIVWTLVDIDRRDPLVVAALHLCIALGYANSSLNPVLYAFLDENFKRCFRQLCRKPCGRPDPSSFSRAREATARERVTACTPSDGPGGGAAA

[10] = molecular target: T3, Gastrin/cholecystokinin type B receptor (Homo sapiens, UniProt P32239); assay: Binding affinity towards Cholecystokinin type B receptor (CCK-B) receptor was determined
T3 sequence (P32239 whole entry): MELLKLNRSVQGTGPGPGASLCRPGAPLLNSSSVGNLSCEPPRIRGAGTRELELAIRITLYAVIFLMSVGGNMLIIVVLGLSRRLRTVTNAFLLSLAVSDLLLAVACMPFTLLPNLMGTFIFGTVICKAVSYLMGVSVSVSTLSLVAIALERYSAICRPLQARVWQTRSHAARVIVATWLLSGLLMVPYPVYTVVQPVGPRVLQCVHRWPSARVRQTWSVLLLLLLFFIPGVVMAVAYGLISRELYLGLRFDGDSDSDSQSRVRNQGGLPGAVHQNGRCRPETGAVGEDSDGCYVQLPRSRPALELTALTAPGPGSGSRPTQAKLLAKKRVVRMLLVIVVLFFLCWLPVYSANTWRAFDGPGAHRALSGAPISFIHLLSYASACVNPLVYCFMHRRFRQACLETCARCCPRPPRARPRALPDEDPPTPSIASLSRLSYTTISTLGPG

[11] = molecular target: T4, Oxytocin receptor (Homo sapiens, UniProt P30559); assay: Binding affinity towards oxytocin receptor
T4 sequence (P30559 whole entry): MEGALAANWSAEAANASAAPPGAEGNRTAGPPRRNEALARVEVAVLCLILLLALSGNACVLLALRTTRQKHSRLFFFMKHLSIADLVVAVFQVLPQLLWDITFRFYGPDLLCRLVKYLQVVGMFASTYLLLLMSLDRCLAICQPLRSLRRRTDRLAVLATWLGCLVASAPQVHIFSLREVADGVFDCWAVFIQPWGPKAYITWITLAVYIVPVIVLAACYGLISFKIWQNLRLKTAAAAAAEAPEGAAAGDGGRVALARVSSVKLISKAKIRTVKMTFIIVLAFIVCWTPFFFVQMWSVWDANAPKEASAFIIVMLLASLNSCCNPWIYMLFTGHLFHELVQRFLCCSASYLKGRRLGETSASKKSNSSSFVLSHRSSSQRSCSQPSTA

CCCC[C@H](NC(C)=O)C(=O)N[C@H]1CC(=O)NCCCC[C@@H](C(N)=O)NC(=O)[C@@H]([C@@H](C)c2c[nH]c3ccccc23)NC(=O)[C@H](CCCN=C(N)N)NC(=O)[C@@H](Cc2ccccc2)NC(=O)[C@H](Cc2c[nH]cn2)NC1=O
EC50 [1]: 1.43 nM | EC50 [2]: 0.06 nM

Cc1cc(O)cc(C)c1[C@H](C)[C@@H](N)C(=O)N[C@H](C(=O)NCC(=O)N[C@@H](Cc1ccccc1)C(=O)N[C@H](C(=O)O)C(C)(C)S)C(C)(C)S (H-[X1][Pen]GF[Pen]-OH)
Activity [3]: 75% | Activity [4]: 0%

CCCC[C@H](NC(C)=O)C(=O)N[C@H]1CC(=O)NCC[C@@H](C(N)=O)NC(=O)[C@H](Cc2c[nH]c3ccccc23)NC(=O)[C@H](CCCN=C(N)N)NC(=O)[C@@H](Cc2ccccc2)NC(=O)[C@H](Cc2c[nH]cn2)NC1=O
EC50 [5]: 0.5 nM | EC50 [6]: 0.2 nM

CCCC[C@@H](C(=O)N[C@@H](CC(=O)O)C(=O)N[C@@H](Cc1ccccc1)C(N)=O)N(C)C(=O)[C@H](Cc1c[nH]c2ccccc12)NC(=O)CNC(=O)[C@@H](Cc1ccccc1)NC(=O)[C@H](Cc1ccc(O)cc1)NC(=O)[C@@H](N)CC(=O)O
Ki [7]: 5200 nM | Ki [8]: 3330 nM

CCCC[C@@H](C(=O)N[C@@H](CC(=O)O)C(=O)N[C@@H](Cc1ccccc1)C(N)=O)N(C)C(=O)[C@H](Cc1c[nH]c2ccccc12)NC(=O)CNC(=O)CNC(=O)[C@@H](N)Cc1ccc(O)cc1 (H-YGGW[NMeNle]DF-NH2)
Ki [9]: 2000 nM | Ki [7]: 610 nM | Ki [10]: 1.3 nM | Ki [8]: 870 nM

CCCC[C@H](NC(C)=O)C(=O)N[C@H]1CC(=O)NCCCC[C@@H](C(=O)NCC(=O)N2CCC[C@H]2C(=O)N[C@H](C(N)=O)C(C)C)NC(=O)[C@H](Cc2c[nH]c3ccccc23)NC(=O)[C@H](CCCN=C(N)N)NC(=O)[C@@H](Cc2ccccc2)NC(=O)[C@H](Cc2c[nH]cn2)NC1=O
EC50 [1]: 0.01 nM | EC50 [2]: 0.5 nM

CC[C@H](C)[C@@H]1NC(=O)[C@H]([C@H](C)c2c(C)cc(OC)cc2C)NC(=O)[C@H](N)C(C)(C)SSC[C@@H]2NC(=O)[C@@H](CC(N)=O)NC(=O)[C@@H](CCC(=O)NCCCC[C@H](C(=O)NCC(N)=O)NC(=O)[C@H]3CCCN3C2=O)NC1=O
IC50 [11]: 19000 nM

CCCC[C@H](NC(C)=O)C(=O)N[C@H]1CC(=O)NCCC[C@@H](C(N)=O)NC(=O)[C@H](Cc2c[nH]c3ccccc23)NC(=O)[C@H](CCCN=C(N)N)NC(=O)[C@@H](Cc2ccccc2)NC(=O)[C@H](Cc2c[nH]cn2)NC1=O
EC50 [5]: 0.5 nM | EC50 [6]: 0.05 nM

CC[C@H](C)[C@@H]1NC(=O)[C@H](Cc2ccc(O)cc2)NC(=O)[C@H](N)C(C)(C)SSC[C@@H]2NC(=O)[C@H](CC(N)=O)NC(=O)[C@H](CCC(=O)NCCCC[C@@H](C(=O)NCC(N)=O)NC(=O)[C@@H]3CCCN3C2=O)NC1=O
IC50 [11]: 130 nM

CCCC[C@H](NC(C)=O)C(=O)N[C@H]1CC(=O)NC[C@@H](C(N)=O)NC(=O)[C@H](Cc2c[nH]c3ccccc23)NC(=O)[C@H](CCCN=C(N)N)NC(=O)[C@@H](Cc2ccccc2)NC(=O)[C@H](Cc2c[nH]cn2)NC1=O
EC50 [5]: 50 nM | EC50 [6]: 0.2 nM

CCCC[C@H](NC(C)=O)C(=O)N[C@H]1CC(=O)NCCCC[C@@H](C(N)=O)NC(=O)[C@H]([C@@H](C)c2c[nH]c3ccccc23)NC(=O)[C@H](CCCN=C(N)N)NC(=O)[C@@H](Cc2ccccc2)NC(=O)[C@H](Cc2c[nH]cn2)NC1=O
EC50 [1]: 1 nM | EC50 [5]: 0.44 nM

CCCC[C@@H](C(=O)N[C@@H](CC(=O)O)C(=O)N[C@@H](Cc1ccccc1)C(N)=O)N(C)C(=O)[C@H](Cc1c[nH]c2ccccc12)NC(=O)[C@H](CCC(=O)O)NC(=O)[C@@H](Cc1ccccc1)NC(=O)[C@@H](N)Cc1ccc(O)cc1
Ki [9]: 6.8 nM | Ki [7]: 136 nM | Ki [10]: 2.1 nM | Ki [8]: 10000 nM
